Read-outs that look alike come from different tables or passages of the source.
How the values were obtained:
[1] = target: T1, EGFR L858R-T790M (Homo sapiens, UniProt P00533, L858R/T790M); assay: EGFR degradation, Total EGFR (L858R-specific) HTRF, NCI-H1975; assay type: cell-based; conditions: NCI-H1975 cells, 6 hours, Total EGFR HTRF, read-out: H1975 EGFR DC50
T1 construct: NCI-H1975 (harboring EGFR heterozygous L858R-T790M mutations); host or cells: NCI-H1975
Outline: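 Cells in RPMI 1640 + 10% FBS treated 6 h at 37°C with compound, 11-point half-log titration from 10 μM top, in duplicate. pY1068 and total EGFR read by HTRF (pan-EGFR antibody for wild-type A431; L858R-specific for mutants); IC50 for phospho inhibition, DC50 for 50% degradation.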

[2] = target: EGFR L858R (Homo sapiens, UniProt P00533, L858R); assay: EGFR degradation, Total EGFR (L858R-specific) HTRF, NCI-H3255; assay type: cell-based; parameters: NCI-H3255 (harboring EGFR heterozygous L858R mutation); host or cells: NCI-H3255; conditions: NCI-H3255 cells, 6 hours, Total EGFR HTRF, read-out: H3255 EGFR DC50
Chain of EGFR L858R (P00533 25-1210 L858R): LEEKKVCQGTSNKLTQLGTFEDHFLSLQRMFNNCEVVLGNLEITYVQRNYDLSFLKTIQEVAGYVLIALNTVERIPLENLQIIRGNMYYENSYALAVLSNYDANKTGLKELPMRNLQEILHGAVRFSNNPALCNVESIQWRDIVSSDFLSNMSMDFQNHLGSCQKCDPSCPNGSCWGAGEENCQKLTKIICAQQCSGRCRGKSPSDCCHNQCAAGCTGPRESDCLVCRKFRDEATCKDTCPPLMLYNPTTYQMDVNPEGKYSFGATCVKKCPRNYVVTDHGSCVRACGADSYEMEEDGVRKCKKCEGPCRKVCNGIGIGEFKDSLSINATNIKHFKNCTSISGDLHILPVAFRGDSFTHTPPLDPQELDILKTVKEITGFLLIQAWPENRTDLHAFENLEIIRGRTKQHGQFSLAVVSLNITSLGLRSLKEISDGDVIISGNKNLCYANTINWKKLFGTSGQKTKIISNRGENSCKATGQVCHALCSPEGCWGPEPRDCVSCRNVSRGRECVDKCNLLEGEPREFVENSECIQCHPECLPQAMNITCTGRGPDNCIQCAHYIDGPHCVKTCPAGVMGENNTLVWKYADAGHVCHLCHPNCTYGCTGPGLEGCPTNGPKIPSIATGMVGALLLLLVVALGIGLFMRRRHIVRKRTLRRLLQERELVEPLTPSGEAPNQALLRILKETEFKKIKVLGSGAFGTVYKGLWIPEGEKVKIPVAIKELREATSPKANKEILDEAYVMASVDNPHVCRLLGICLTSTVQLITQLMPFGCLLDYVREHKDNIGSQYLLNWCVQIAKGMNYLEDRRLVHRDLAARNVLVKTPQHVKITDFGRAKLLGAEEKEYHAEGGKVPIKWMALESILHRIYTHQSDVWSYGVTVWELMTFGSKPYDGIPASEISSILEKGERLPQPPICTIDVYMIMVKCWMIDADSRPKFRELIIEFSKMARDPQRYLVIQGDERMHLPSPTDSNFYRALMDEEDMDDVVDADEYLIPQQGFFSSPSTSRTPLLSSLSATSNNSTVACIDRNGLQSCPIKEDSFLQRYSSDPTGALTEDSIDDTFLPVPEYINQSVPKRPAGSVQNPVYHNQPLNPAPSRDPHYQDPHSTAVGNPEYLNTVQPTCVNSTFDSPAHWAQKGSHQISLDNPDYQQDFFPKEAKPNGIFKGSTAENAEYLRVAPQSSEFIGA
Source text: NCI-H1975 (harboring EGFR heterozygous L858R-T790M mutations) and NCI-H3255 (harboring EGFR heterozygous L858R mutation) were purchased from ATCC and NCI, respectively. NCI-H1975+CS (harboring EGFR heterozygous L858R-T790M-C797S mutations) was generated using CRISPR technology to introduce the additional C797S mutation by Horizon Discovery. A431 (harboring EGFR wildtype) was purchased from ATCC. RPMI 1640 no-phenol red medium and fetal bovine serum (FBS) were purchased from Gibco (Grand Island, NY, USA). Cell culture flasks and 384-well microplates were acquired from VWR (Radnor, PA, USA). Phosphorylated (pY1068) EGFR and Total EGFR (using L858R-specific detection antibody and pan-EGFR antibody for EGFR mutant cell lines and EGFR wild-type cell lines, respectively) HTRF assay kits were purchased from Cisbio (Bedford, MA, USA).
Degradation of EGFR protein containing L858R mutation or wild-type was determined based on quantification of FRET signal using a Total EGFR (L858R-specific or pan-EGFR detecting) HTRF assay kit. Phospho-EGFR (pEGFR) inhibition was determined based on quantification of FRET signal using a pY1068 EGFR HTRF assay kit. In separate assay plates, test compounds were added to the 384-well plate from a top concentration of 10 μM with 11 points, half log titration in duplicates. For each assay, 12.5 uL of cells suspended in assay media (RPMI 1640 no-phenol red medium+10% FBS) at cell densities indicated for each cell line in Table 8 below were dispensed using a multi-channel pipette to 384-well low volume white HTRF microplates containing a duplicate concentration range of test compounds and DMSO controls. The plates were kept at 37° C. with 5% CO2 for 6 hours and then incubated with either phospho EGFR or Total EGFR HTRF detection antibodies according to the cell line and EGFR mutant being assayed. Cells treated in the absence of the test compound were the negative control. Positive control was set by wells containing all reagents but no cells. FRET signal was acquired on EnVision™ Multilabel Reader (PerkinElmer, Santa Clara, CA, USA). Compound concentration that achieves 50% degradation and inhibition was reported as DC50 and IC50, respectively.

T1 sequence (P00533 25-1210 T790M/L858R): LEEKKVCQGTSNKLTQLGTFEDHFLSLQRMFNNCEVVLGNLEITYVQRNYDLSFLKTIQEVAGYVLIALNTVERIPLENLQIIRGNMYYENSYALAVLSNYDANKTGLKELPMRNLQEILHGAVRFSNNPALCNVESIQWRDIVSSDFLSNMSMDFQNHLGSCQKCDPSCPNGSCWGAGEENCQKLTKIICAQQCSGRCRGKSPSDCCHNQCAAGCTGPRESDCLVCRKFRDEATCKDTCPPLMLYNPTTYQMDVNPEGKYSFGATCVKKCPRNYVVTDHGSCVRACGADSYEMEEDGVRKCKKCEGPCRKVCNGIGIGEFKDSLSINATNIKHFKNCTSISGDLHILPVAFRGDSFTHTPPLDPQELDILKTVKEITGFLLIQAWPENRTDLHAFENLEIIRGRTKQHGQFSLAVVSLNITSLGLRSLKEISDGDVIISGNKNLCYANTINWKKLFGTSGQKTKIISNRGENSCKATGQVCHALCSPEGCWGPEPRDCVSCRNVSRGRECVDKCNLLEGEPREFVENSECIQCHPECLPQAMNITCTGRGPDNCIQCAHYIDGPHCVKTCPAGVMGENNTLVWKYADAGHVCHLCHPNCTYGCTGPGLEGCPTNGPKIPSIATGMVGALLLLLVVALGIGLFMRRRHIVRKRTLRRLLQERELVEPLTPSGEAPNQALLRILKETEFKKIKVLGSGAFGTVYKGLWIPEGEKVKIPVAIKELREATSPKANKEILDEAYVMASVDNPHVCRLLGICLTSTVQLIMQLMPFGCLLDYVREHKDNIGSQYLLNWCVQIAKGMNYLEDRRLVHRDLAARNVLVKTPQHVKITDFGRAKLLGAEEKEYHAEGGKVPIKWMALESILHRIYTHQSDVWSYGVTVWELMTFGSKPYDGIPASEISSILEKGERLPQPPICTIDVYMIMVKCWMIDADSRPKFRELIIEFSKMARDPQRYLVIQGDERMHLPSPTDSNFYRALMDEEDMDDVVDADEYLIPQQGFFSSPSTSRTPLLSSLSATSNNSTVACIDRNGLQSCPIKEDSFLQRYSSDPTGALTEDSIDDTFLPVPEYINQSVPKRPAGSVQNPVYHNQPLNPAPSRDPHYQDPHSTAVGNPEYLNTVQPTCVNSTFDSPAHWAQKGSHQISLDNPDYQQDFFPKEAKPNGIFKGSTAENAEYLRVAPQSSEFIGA

Compound | DC50 ([1]; Table 9A) | DC50 ([2]; Table 9A) | DC50 ([1]; Table 9B) | DC50 ([2]; Table 9B)
O=C1CCC(Nc2ccc(C3CCN(CC(=O)N4CCN(Cc5ccc(-c6cc(F)c7c(c6)C(=O)N(C(C(=O)Nc6nccs6)c6ncn8c6CCC8)C7)cc5)CC4)CC3)cc2)C(=O)N1 (stereo not shown) [Compound 6, 2-(6,7-dihydro-5H-pyrrolo[1,2-c]imidazol-1-yl)-2-[6-[4-[[4-[2-[4-[4-[(2,6-dioxo-3-piperidyl)amino]phenyl]-1-piperidyl]acetyl]piperazin-1-yl]methyl]phenyl]-4-fluoro-1-oxo-isoindolin-2-yl]-N-thiazol-2-yl-acetamide] | < 50 nM | < 50 nM |  | 
O=C1CC[C@H](Nc2ccc(C3CCN(CC(=O)N4CCC(n5cc(-c6cc(F)c7c(c6)C(=O)N(C(C(=O)Nc6nccs6)c6ncn8c6CCC8)C7)cn5)CC4)CC3)cc2)C(=O)N1 (stereo partly drawn) [Compound 28, 2-(6,7-dihydro-5H-pyrrolo[1,2-c]imidazol-1-yl)-2-[6-[1-[1-[2-[4-[4-[[(3S)-2,6-dioxo-3-piperidyl]amino]phenyl]-1-piperidyl]acetyl]-4-piperidyl]pyrazol-4-yl]-4-fluoro-1-oxo-isoindolin-2-yl]-N-thiazol-2-yl-acetamide] | < 50 nM | < 50 nM |  | 
O=C1CC[C@H](Nc2ccc(C3CCN(CC(=O)N4CCC(c5cnn(-c6cc(F)c7c(c6)C(=O)N(C(C(=O)Nc6nccs6)c6ncn8c6CCC8)C7)c5)CC4)CC3)cc2)C(=O)N1 (stereo partly drawn) [Compound 29, 2-(6,7-dihydro-5H-pyrrolo[1,2-c]imidazol-1-yl)-2-[6-[4-[1-[2-[4-[4-[[(3S)-2,6-dioxo-3-piperidyl]amino]phenyl]-1-piperidyl]acetyl]-4-piperidyl]pyrazol-1-yl]-4-fluoro-1-oxo-isoindolin-2-yl]-N-thiazol-2-yl-acetamide] | < 50 nM | < 50 nM |  | 
O=C1CC[C@H](Nc2ccc(C3CCN(CC(=O)N4CCN(c5ccc(-c6cc(F)c7cn(C(C(=O)Nc8nccs8)c8ncn9c8CCC9)nc7c6)cn5)CC4)CC3)c(F)c2)C(=O)N1 (stereo partly drawn) [Compound 68, 2-(6,7-dihydro-5H-pyrrolo[1,2-c]imidazol-1-yl)-2-(6-(6-(4-(2-(4-(4-(((S)-2,6-dioxopiperidin-3-yl)amino)-2-fluorophenyl)piperidin-1-yl)acetyl)piperazin-1-yl)pyridin-3-yl)-4-fluoro-2H-indazol-2-yl)-N-(thiazol-2-yl)acetamide] | < 50 nM | < 50 nM |  | 
O=C1CC[C@H](Nc2ccc(C3CCN(CC(=O)N4CC5(CCN(c6ccc(-c7cc(F)c8c(c7)C(=O)N(C(C(=O)Nc7nccs7)c7ncn9c7CCC9)C8)cc6)CC5)C4)CC3)c(F)c2)C(=O)N1 (stereo partly drawn) [Compound 46, 2-(6,7-dihydro-5H-pyrrolo[1,2-c]imidazol-1-yl)-2-(6-(4-(2-(2-(4-(4-(((S)-2,6-dioxopiperidin-3-yl)amino)-2-fluorophenyl)piperidin-1-yl)acetyl)-2,7-diazaspiro[3.5]nonan-7-yl)phenyl)-4-fluoro-1-oxoisoindolin-2-yl)-N-(thiazol-2-yl)acetamide] | 50 to 150 nM | 50 to 150 nM |  | 
O=C1CC[C@H](Nc2ccc(C3CCN(CC(=O)N4CCC(c5ccc(-c6cc(F)c7c(c6)C(=O)N(C(C(=O)Nc6nccs6)c6ncn8c6CCC8)C7)cc5)CC4)CC3)cc2)C(=O)N1 (stereo partly drawn) [Compound 22, 2-(6,7-dihydro-5H-pyrrolo[1,2-c]imidazol-1-yl)-2-(6-(4-(1-(2-(4-(4-(((S)-2,6-dioxopiperidin-3-yl)amino)phenyl)piperidin-1-yl)acetyl)piperidin-4-yl)phenyl)-4-fluoro-1-oxoisoindolin-2-yl)-N-(thiazol-2-yl)acetamide] | < 50 nM | < 50 nM |  | 
O=C1CCC(Nc2ccc(C3CCN(C(=O)CN4CCN(c5ccc(-c6cc(F)c7c(c6)C(=O)N(C(C(=O)Nc6nccs6)c6ncn8c6CCC8)C7)cc5)CC4)CC3)cc2)C(=O)N1 (stereo not shown) [Compound 178, 2-(6,7-dihydro-5H-pyrrolo[1,2-c]imidazol-1-yl)-2-(6-(4-(4-(2-(4-(4-((2,6-dioxopiperidin-3-yl)amino)phenyl)piperidin-1-yl)-2-oxoethyl)piperazin-1-yl)phenyl)-4-fluoro-1-oxoisoindolin-2-yl)-N-(thiazol-2-yl)acetamide] |  |  | < 50 nM | < 50 nM
O=C1CC[C@H](Nc2ccc(C3CCN(CC(=O)N4CCCN(c5ccc(-c6cc(F)c7c(c6)C(=O)N(C(C(=O)Nc6nccs6)c6ncn8c6CCC8)C7)cc5)CC4)CC3)c(F)c2)C(=O)N1 (stereo partly drawn) [Compound 84, 2-(6,7-dihydro-5H-pyrrolo[1,2-c]imidazol-1-yl)-2-(6-(4-(4-(2-(4-(4-(((S)-2,6-dioxopiperidin-3-yl)amino)-2-fluorophenyl)piperidin-1-yl)acetyl)-1,4-diazepan-1-yl)phenyl)-4-fluoro-1-oxoisoindolin-2-yl)-N-(thiazol-2-yl)acetamide] |  |  | 50 to 150 nM | 50 to 150 nM
O=C1CCC(Nc2ccc(C3CCN(C(=O)C(=O)N4CCC(Oc5ccc(-c6cc(F)c7c(c6)C(=O)N(C(C(=O)Nc6nccs6)c6ncn8c6CCC8)C7)cc5)CC4)CC3)cc2)C(=O)N1 (stereo not shown) [Compound 40, 2-(6,7-dihydro-5H-pyrrolo[1,2-c]imidazol-1-yl)-2-[6-[4-[[1-[2-[4-[4-[(2,6-dioxo-3-piperidyl)amino]phenyl]-1-piperidyl]-2-oxo-acetyl]-4-piperidyl]oxy]phenyl]-4-fluoro-1-oxo-isoindolin-2-yl]-N-thiazol-2-yl-acetamide] | < 50 nM | < 50 nM |  | 

Other lines, results leading:

DC50 ([1]; Table 9A) | DC50 ([2]; Table 9A) | DC50 ([1]; Table 9B) | DC50 ([2]; Table 9B) | Compound
< 50 nM | < 50 nM |  |  | O=C1CC[C@H](Nc2ccc(C3CCN(CC(=O)N4CCN(c5ccc(-c6cc(F)c7c(c6)C(=O)N(C(C(=O)Nc6nccs6)c6ncn8c6CCC8)C7)cn5)CC4)CC3)c(F)c2)C(=O)N1 (stereo partly shown) [Compound 27]
 |  | < 50 nM | < 50 nM | O=C1CC[C@@H](Nc2ccc(C3CCN(CC(=O)N4CCN(c5ccc(-c6cc(F)c7c(c6)C(=O)N(C(C(=O)Nc6nccs6)c6ncn8c6CCC8)C7)cc5)CC4)CC3)cc2)C(=O)N1 (stereo partly drawn) [Compound 175, 2-(6,7-dihydro-5H-pyrrolo[1,2-c]imidazol-1-yl)-2-[6-[4-[4-[2-[4-[4-[[(3R)-2,6-dioxo-3-piperidyl]amino]phenyl]-1-piperidyl]acetyl]piperazin-1-yl]phenyl]-4-fluoro-1-oxo-isoindolin-2-yl]-N-thiazol-2-yl-acetamide]
< 50 nM | 50 to 150 nM |  |  | Cn1nc(N2CCC(=O)NC2=O)c2ccc(C3CCN(CC(=O)N4CCN(c5ccc(-c6cc(F)c7cn(C(C(=O)Nc8nccs8)c8ncn9c8CCC9)nc7c6)cn5)CC4)CC3)cc21 (stereo not shown) [Compound 67, 2-(6,7-dihydro-5H-pyrrolo[1,2-c]imidazol-1-yl)-2-[6-[6-[4-[2-[4-[3-(2,4-dioxohexahydropyrimidin-1-yl)-1-methyl-indazol-6-yl]-1-piperidyl]acetyl]piperazin-1-yl]-3-pyridyl]-4-fluoro-indazol-2-yl]-N-thiazol-2-yl-acetamide]
50 to 150 nM | < 50 nM |  |  | O=C1CC[C@H](Nc2ccc(C3CCN(CC(=O)N4CC5(C4)CN(c4ccc(-c6cc(F)c7c(c6)C(=O)N(C(C(=O)Nc6ccccn6)c6ncn8c6CCC8)C7)cc4)C5)CC3)c(F)c2)C(=O)N1 (stereo partly drawn) [Compound 53, 2-(6,7-dihydro-5H-pyrrolo[1,2-c]imidazol-1-yl)-2-[6-[4-[2-[2-[4-[4-[[(3S)-2,6-dioxo-3-piperidyl]amino]-2-fluoro-phenyl]-1-piperidyl]acetyl]-2,6-diazaspiro[3.3]heptan-6-yl]phenyl]-4-fluoro-1-oxo-isoindolin-2-yl]-N-(2-pyridyl)acetamide]
50 to 150 nM | < 50 nM |  |  | O=C1CC[C@H](Nc2ccc(C3CCN(CC(=O)N4CCC(Cc5ccc(-c6cc(F)c7c(c6)C(=O)N(C(C(=O)Nc6nccs6)c6ncn8c6CCC8)C7)cc5)CC4)CC3)c(F)c2)C(=O)N1 (stereo partly drawn) [Compound 60, 2-(6,7-dihydro-5H-pyrrolo[1,2-c]imidazol-1-yl)-2-[6-[4-[[1-[2-[4-[4-[[(3S)-2,6-dioxo-3-piperidyl]amino]-2-fluoro-phenyl]-1-piperidyl]acetyl]-4-piperidyl]methyl]phenyl]-4-fluoro-1-oxo-isoindolin-2-yl]-N-thiazol-2-yl-acetamide]

From US20240158418A1 (C4 Therapeutics, Inc., priority 2021, published 2024)
